Consider three molecules from patent publication US8841285B2, “Potent immunosuppressive agents, derivatives and uses” (priority 2002, dated 2014).

By IC50 is commonly meant the concentration at which inhibition is half-maximal. High values mean weaker potency in that assay, low ones greater potency in that assay.

The subject of test [1] is RKO cells. The test is described as follows: cell proliferation assay, RKO cells. The following applies: Homo sapiens. In kind it is cell-based. As to the method: Cell Proliferation Assay. 1×10^5 of indicated cells in each well of a 96-well plate were treated with indicated compounds for 24 h followed by addition of 0.11 μCi of [^3H]-thymidine (6.7 Ci/mmol) per well for 6 h, followed by harvesting to GF/C filtermats using a cell harvester. Filtermats were air-dried and scintillation counted. IC50s were determined from quadruplicate data readings and curve-fitting analysis.

Test [2] relates to HeLa cells. In kind it is cell-based.
In test [3] the test system is cap-dependent translation. Kind of test: in vitro translation in RRL, bicistronic reporter, cap-dependent cistron. In kind it is biochemical, rabbit. The following applies: HCV IRES bicistronic reporter. The procedure: In vitro Translation and Transcription. pSP/(CAG)33/FF/HCV/Ren·pA51 and pKS/FF/EMC/Ren were linearized by BamHI, then purified by phenol:chloroform extraction and ethanol precipitation, and dissolved in water. pSP/(CAG)33/FF/HCV/Ren·A51 and pKS/FF/EMC/Ren were individually transcribed using a large scale RNA production system in the presence of m7Gppp cap analog followed by incubation with DNase as described by the manufacturer. Resulting RNA was purified using a kit as described by the manufacturer. Translation was performed using a rabbit reticulocyte lysate system as per instructions. Briefly, 200 ng of purified RNA was combined in a 20 μl reaction containing 10 μl RRL, 0.2 μl each of minus Met and minus Leu amino acid mixtures, 70 mM KCl, 2 mM DTT, 1× translation buffer, and 10 units of RNasin. Compounds or DMSO were added to a final DMSO concentration of 2%. Reactions were incubated at 30° C. for 1.5 h, then 5 μl of the reaction mixture was assayed for luciferase activity as per instructions of luciferas reporter assay system.

The subject of test [4] is 293T cells. The test is described as follows: cellular polyribosome profiles. The following applies: 30 min treatment. In kind it is cell-based. The procedure:
Cellular polyribosome profiles. 293T cells were treated as indicated for 30 min. Cells were washed twice with ice-cold PBS and pipetted for 5 min in 500 μl of chilled TMK100 buffer (20 mM Tris-HCl pH 7.4, 5 mM MgCl2 100 mM KCl, 2 mM DTT, 1% Triton X-100 and 100 U/ml RNAsin in DEPC water). After clearing at 10,000×g (10 min) at 4° C., the supernatant (S10) was layered onto 11 ml, 15-45% linear sucrose gradient containing 20 mM HEPES pH 7.4, 100 mM KCl, 5 mM MgCl2 and 2 mM DTT. Ultracentrifugation at 40,000 rpm for 1.5 h at 4° C. was performed in a suitable rotor. Fractions were collected from the top of the gradient by injection of Flurinert FC-40 from bottom of centrifuge tube. Gradient profiles were monitored at 254 nm. For immunoblotting, 7 mg of total protein were processed as described above, followed by collection of 500 μl fractions were collected from the top. 100 μl aliquots of each were boiled in SDS sample buffer, followed by SDS-PAGE and immunoblotting.

As to `CC(/C=C/C(C)=C/[C@@H]1Cc2nc(cs2)[C@@H](C)CC(NCC(=O)NCCOCCOCCNC(=O)CCCC[C@@H]2SCC3NC(=O)NC32)CC(=O)O[C@@H](C)C/C(C)=C/C=C\C(=O)O1)=C\CN(C)C` (some centres unmarked) [B-PatA, Biotin-PEO-Pateamine A], the IC50 in test [1] is below 15 nM.

For `C[C@@H]1C[C@@H]([C@H](O)CC2CC(=O)NC(=O)C2)C(=O)[C@@H](C)C1` [CHX, cycloheximide], in test [2], the stress granule formation entry is recorded as “did not induce stress granule formation”. Further, the “inhibition of cap- versus HCV IRES-dependent translation” value in test [3] was “nearly equal inhibition”. The “effect on polysome profile” value in test [4] is “did not perturb the sucrose gradient profile”.

arsenite: the stress granule formation result in test [2] is reported as “eIF4B co-localized with TIA-1 in stress granules”.
